Assay results as given in PubChem BioAssay AID2060883 (Molecular Pharmacology Branch, DTP, NCI, 2025).
Several values for one entry are separate records, joined by “and”; a condition that tells them apart may be missing. Equal values may be shown once. Each block holds one compound with its values, some of them ahead of it.

System: 843782-103-R-J1-PDC complex spheroid viability
Assay: Anticancer human tumor 843782-103-R-J1-PDC patient-derived lung adenocarcinoma cell line growth inhibition [RAS]
Settings: for viability, T/C: stronger effect = lower value
Method in brief: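 Tumour cells grown as complex spheroids with HUVEC endothelial cells and mesenchymal stem cells, treated with RAS pathway inhibitor combinations. Each agent spans half-log steps from near clinical Cmax, or 10 microM where Cmax is unknown.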
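Further: viability read after seven days of compound exposure.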

- IC50 (curve of compound): 1.78 µM [middle of 4 runs]
Compound: CCC(CC)c1cc(NC2CCC(N)C2)n2nccc2n1 (stereo not drawn)
- viability, T/C (compound 0.0316 µM): 114% and 109% and 101% (2×)
- viability, T/C (compound 0.1 µM): 107% [middle of 4 runs]
- viability, T/C (compound 0.316 µM): 101% [middle of 4 runs]
- viability, T/C (compound 3.16 µM): 2.11% [middle of 4 runs]
- viability, T/C (compound 10 µM): 0.82% [middle of 4 runs]

- IC50 (curve of first compound, second compound 0.00316 µM): 1.67 nM
- IC50 (curve of first compound, second compound 0.01 µM): 1.52 nM
- IC50 (curve of first compound, second compound 0.0316 µM): 1.56 nM
- IC50 (curve of first compound, second compound 0.1 µM): 1.56 nM
- IC50 (curve of first compound, second compound 0.316 µM): 1.54 nM
- IC50 (curve of first compound, second compound 1 µM): 1.52 nM
Compound: CCc1c2c(nc3ccc(O)cc13)-c1cc3c(c(=O)n1C2)COC(=O)[C@]3(O)CC + C=CC(=O)N1CCN(c2nc(OCC3CCCN3C)nc3c(F)c(-c4nc(N)cc(C)c4C(F)(F)F)c(Cl)cc23)C(C)C1
- viability, T/C (second compound 0.00316 µM, first compound 0.000949 µM): 80.4%
- viability, T/C (second compound 0.00316 µM, first compound 0.003 µM): 18.2%
- viability, T/C (second compound 0.00316 µM, first compound 0.00949 µM): 6.35%
- viability, T/C (second compound 0.00316 µM, first compound 0.03 µM): 2.5%
- viability, T/C (second compound 0.00316 µM, first compound 0.0949 µM): 1.18%
- viability, T/C (second compound 0.00316 µM, first compound 0.3 µM): 0.74%
- viability, T/C (second compound 0.01 µM, first compound 0.000949 µM): 72.8%
- viability, T/C (second compound 0.01 µM, first compound 0.003 µM): 16.8%
- viability, T/C (second compound 0.01 µM, first compound 0.00949 µM): 8.52%
- viability, T/C (second compound 0.01 µM, first compound 0.03 µM): 3.04%
- viability, T/C (second compound 0.01 µM, first compound 0.0949 µM): 0.93%
- viability, T/C (second compound 0.01 µM, first compound 0.3 µM): 0.76%
- viability, T/C (second compound 0.0316 µM, first compound 0.000949 µM): 72.6%
- viability, T/C (second compound 0.0316 µM, first compound 0.003 µM): 19.5%
- viability, T/C (second compound 0.0316 µM, first compound 0.00949 µM): 7.44%
- viability, T/C (second compound 0.0316 µM, first compound 0.03 µM): 2.35%
- viability, T/C (second compound 0.0316 µM, first compound 0.0949 µM): 1.24%
- viability, T/C (second compound 0.0316 µM, first compound 0.3 µM): 0.8%
- viability, T/C (second compound 0.1 µM, first compound 0.000949 µM): 73.6%
- viability, T/C (second compound 0.1 µM, first compound 0.003 µM): 18.1%
- viability, T/C (second compound 0.1 µM, first compound 0.00949 µM): 7.09%
- viability, T/C (second compound 0.1 µM, first compound 0.03 µM): 1.96%
- viability, T/C (second compound 0.1 µM, first compound 0.0949 µM): 1.46%
- viability, T/C (second compound 0.1 µM, first compound 0.3 µM): 0.64%
- viability, T/C (second compound 0.316 µM, first compound 0.000949 µM): 70.7%
- viability, T/C (second compound 0.316 µM, first compound 0.003 µM): 21.1%
- viability, T/C (second compound 0.316 µM, first compound 0.00949 µM): 7.83%
- viability, T/C (second compound 0.316 µM, first compound 0.03 µM): 2.85%
- viability, T/C (second compound 0.316 µM, first compound 0.0949 µM): 1.34%
- viability, T/C (second compound 0.316 µM, first compound 0.3 µM): 0.99%
- viability, T/C (second compound 1 µM, first compound 0.000949 µM): 67.7%
- viability, T/C (second compound 1 µM, first compound 0.003 µM): 24.5%
- viability, T/C (second compound 1 µM, first compound 0.00949 µM): 7.99%
- viability, T/C (second compound 1 µM, first compound 0.03 µM): 3.23%
- viability, T/C (second compound 1 µM, first compound 0.0949 µM): 1.57%
- viability, T/C (second compound 1 µM, first compound 0.3 µM): 0.98%
